Literature values in publication PMC4366302 (Organic & biomolecular chemistry, 2015).

Conditions: known inherent solubilities

SMILES | S0 (inherent solubility of drug) [µM]
O=C1Cc2cc(CCN3CCN(c4nsc5ccccc45)CC3)c(Cl)cc2N1 [Ziprasidone, ziprasidone] | 63 ± 3.5
O=C(NC1=CC(=O)[C@H]2O[C@H]2[C@H]1O)c1cc2ccccc2[nH]c1=O [PBS-1086] | 4.5 ± 0.90
